Assay results published in PubChem BioAssay AID1259407 (Chemical Carcinogenesis Research Information System (CCRIS), 2018).
The source made the active and inactive calls. The rule behind the calls is not given here.

Tested on: CCRIS mutagenicity, Ames/micronucleus/aberration tests
Assay: CCRIS mutagenicity studies
[1] = Test System: AMES SALMONELLA TYPHIMURIUM, Strain/Indicator: TA98, Metabolic Activation: NONE, Method: STANDARD PLATE
[2] = Test System: AMES SALMONELLA TYPHIMURIUM, Strain/Indicator: TA100, Metabolic Activation: NONE, Method: STANDARD PLATE
[3] = Test System: AMES SALMONELLA TYPHIMURIUM, Strain/Indicator: TA1535, Metabolic Activation: NONE, Method: STANDARD PLATE
[4] = Test System: AMES SALMONELLA TYPHIMURIUM, Strain/Indicator: TA1537, Metabolic Activation: NONE, Method: STANDARD PLATE
[5] = Test System: AMES SALMONELLA TYPHIMURIUM, Strain/Indicator: TA1538, Metabolic Activation: NONE, Method: STANDARD PLATE
[6] = Test System: AMES SALMONELLA TYPHIMURIUM, Strain/Indicator: TA98, Metabolic Activation: NONE, Method: PREINCUBATION
[7] = Test System: AMES SALMONELLA TYPHIMURIUM, Strain/Indicator: TA98, Metabolic Activation: RAT, LIVER, S-9, AROCLOR 1254, Method: STANDARD PLATE
[8] = Test System: AMES SALMONELLA TYPHIMURIUM, Strain/Indicator: TA100, Metabolic Activation: RAT, LIVER, S-9, AROCLOR 1254, Method: STANDARD PLATE
[9] = Test System: AMES SALMONELLA TYPHIMURIUM, Strain/Indicator: TA1535, Metabolic Activation: RAT, LIVER, S-9, AROCLOR 1254, Method: STANDARD PLATE

## NCCCNCCCCNCCCN
Test System: E. COLI, Strain/Indicator: WP2 UVRA (PKM101), Metabolic Activation: NONE, Method: STANDARD PLATE
  mutagenic call: inactive; negative
Test System: E. COLI, Strain/Indicator: WP2 UVRA/OXYR (PKM101), Metabolic Activation: NONE, Method: STANDARD PLATE
  mutagenic call: inactive; negative

## Cc1cn2c([N+](=O)[O-])c(-c3ccc([N+](=O)[O-])cc3)nc2s1
[1]
  mutagenic call: active; positive
[2]
  mutagenic call: active; positive
[3]
  mutagenic call: active; positive
[4]
  mutagenic call: active; positive
[5]
  mutagenic call: active; positive

## CC(C)(C)OC(=O)C=Cc1ccc([N+](=O)[O-])o1
[6]
  mutagenic call: active; positive

## Clc1cc2c3nc4[n-]c(nc5nc(nc6nc(nc([n-]3)c2c(Cl)c1Cl)-c1c(Cl)c(Cl)c(Cl)c(Cl)c1-6)-c1c(Cl)c(Cl)c(Cl)c(Cl)c1-5)c1c(Cl)c(Cl)c(Cl)c(Cl)c41.[Cu+2]
Test System: AMES SALMONELLA TYPHIMURIUM, Strain/Indicator: TA98, Metabolic Activation: HAMSTER, LIVER, S-9, AROCLOR 1254 (30%), Method: PREINCUBATION
  mutagenic call: active; positive
[6]
  mutagenic call: inactive; negative
Test System: AMES SALMONELLA TYPHIMURIUM, Strain/Indicator: TA98, Metabolic Activation: RAT, LIVER, S-9, AROCLOR 1254 (30%), Method: PREINCUBATION
  mutagenic call: active; positive
Test System: AMES SALMONELLA TYPHIMURIUM, Strain/Indicator: TA100, Metabolic Activation: HAMSTER, LIVER, S-9, AROCLOR 1254 (30%), Method: PREINCUBATION
  mutagenic call: inactive; negative
Test System: AMES SALMONELLA TYPHIMURIUM, Strain/Indicator: TA100, Metabolic Activation: NONE, Method: PREINCUBATION
  mutagenic call: inactive; negative
Test System: AMES SALMONELLA TYPHIMURIUM, Strain/Indicator: TA100, Metabolic Activation: RAT, LIVER, S-9, AROCLOR 1254 (30%), Method: PREINCUBATION
  mutagenic call: inactive; negative

## NC(=O)OC1CO1 (stereo unspecified)
Test System: AMES SALMONELLA TYPHIMURIUM, Strain/Indicator: TA1535, Metabolic Activation: RAT, LIVER, MICROSOMES, Method: STANDARD PLATE
  mutagenic call: active; positive

## C[C@]12CC[C@H](OC(=O)Cc3ccc(N(CCCl)CCCl)cc3)C[C@@H]1CC[C@@H]1[C@@H]2CC[C@]2(C)NC(=O)CC[C@@H]12
[1]
  mutagenic call: inactive; negative
[7]
  mutagenic call: inactive; negative
[2]
  mutagenic call: active; positive
[8]
  mutagenic call: active; positive
Test System: AMES SALMONELLA TYPHIMURIUM, Strain/Indicator: TA102, Metabolic Activation: NONE, Method: STANDARD PLATE
  mutagenic call: active; positive
Test System: AMES SALMONELLA TYPHIMURIUM, Strain/Indicator: TA102, Metabolic Activation: RAT, LIVER, S-9, AROCLOR 1254, Method: STANDARD PLATE
  mutagenic call: active; positive
Test System: AMES SALMONELLA TYPHIMURIUM, Strain/Indicator: TA104, Metabolic Activation: NONE, Method: STANDARD PLATE
  mutagenic call: inactive; negative
Test System: AMES SALMONELLA TYPHIMURIUM, Strain/Indicator: TA104, Metabolic Activation: RAT, LIVER, S-9, AROCLOR 1254, Method: STANDARD PLATE
  mutagenic call: inactive; negative
[3]
  mutagenic call: active; positive
[9]
  mutagenic call: active; positive

## CCOc1ccc([N+](=O)[O-])cc1
[6]
  mutagenic call: active; positive
Test System: AMES SALMONELLA TYPHIMURIUM, Strain/Indicator: TA100(NR), Metabolic Activation: RAT, LIVER, S-9, PCB, Method: PREINCUBATION
  mutagenic call: inactive; negative
Test System: AMES SALMONELLA TYPHIMURIUM, Strain/Indicator: TA1535, Metabolic Activation: NONE, Method: PREINCUBATION
  mutagenic call: inactive; negative
Test System: AMES SALMONELLA TYPHIMURIUM, Strain/Indicator: TA1537, Metabolic Activation: NONE, Method: PREINCUBATION
  mutagenic call: inactive; negative
Test System: AMES SALMONELLA TYPHIMURIUM, Strain/Indicator: TA1538, Metabolic Activation: NONE, Method: PREINCUBATION
  mutagenic call: inactive; negative
Test System: AMES SALMONELLA TYPHIMURIUM, Strain/Indicator: YG1026, Metabolic Activation: NONE, Method: PREINCUBATION
  mutagenic call: active; positive
Test System: AMES SALMONELLA TYPHIMURIUM, Strain/Indicator: YG1029, Metabolic Activation: NONE, Method: PREINCUBATION
  mutagenic call: active; positive
Test System: AMES SALMONELLA TYPHIMURIUM, Strain/Indicator: YG1042, Metabolic Activation: NONE, Method: PREINCUBATION
  mutagenic call: active; positive

## CC(=O)Nc1snc2ccccc12
[1]
  mutagenic call: inactive; negative
Test System: AMES SALMONELLA TYPHIMURIUM, Strain/Indicator: TA98, Metabolic Activation: S-9, Method: STANDARD PLATE
  mutagenic call: inactive; negative
[2]
  mutagenic call: inactive; negative
Test System: AMES SALMONELLA TYPHIMURIUM, Strain/Indicator: TA100, Metabolic Activation: S-9, Method: STANDARD PLATE
  mutagenic call: active; positive
[3]
  mutagenic call: inactive; negative
Test System: AMES SALMONELLA TYPHIMURIUM, Strain/Indicator: TA1535, Metabolic Activation: S-9, Method: STANDARD PLATE
  mutagenic call: inactive; negative
[4]
  mutagenic call: active; positive
Test System: AMES SALMONELLA TYPHIMURIUM, Strain/Indicator: TA1537, Metabolic Activation: S-9, Method: STANDARD PLATE
  mutagenic call: active; positive

## CN(C)CCNC(=O)c1cccc2c1Nc1ccccc1O2
[4]
  mutagenic call: active; positive

## O=CC(O)C(O)C(O)CO (stereo unspecified)
[1]
  mutagenic call: inactive; negative
[7]
  mutagenic call: inactive; negative
[2]
  mutagenic call: inactive; negative
[8]
  mutagenic call: inactive; negative
[3]
  mutagenic call: inactive; negative
[9]
  mutagenic call: inactive; negative
[4]
  mutagenic call: inactive; negative
Test System: AMES SALMONELLA TYPHIMURIUM, Strain/Indicator: TA1537, Metabolic Activation: RAT, LIVER, S-9, AROCLOR 1254, Method: STANDARD PLATE
  mutagenic call: inactive; negative
[5]
  mutagenic call: inactive; negative
Test System: AMES SALMONELLA TYPHIMURIUM, Strain/Indicator: TA1538, Metabolic Activation: RAT, LIVER, S-9, AROCLOR 1254, Method: STANDARD PLATE
  mutagenic call: inactive; negative
Test System: E. COLI, Strain/Indicator: WP2, Metabolic Activation: NONE, Method: STANDARD PLATE
  mutagenic call: inactive; negative
Test System: E. COLI, Strain/Indicator: WP2, Metabolic Activation: RAT, LIVER, S-9, AROCLOR 1254, Method: STANDARD PLATE
  mutagenic call: inactive; negative

## O=C1C=C2c3ccccc3-c3cccc(c32)C1=O
Test System: AMES SALMONELLA TYPHIMURIUM, Strain/Indicator: TM677, Metabolic Activation: NONE, Method: PREINCUBATION
  mutagenic call: active; positive
Test System: AMES SALMONELLA TYPHIMURIUM, Strain/Indicator: TM677, Metabolic Activation: RAT, LIVER, POSTMITOCHONDRIAL SUPERNATANT, AROCLOR 1254, Method: PREINCUBATION
  mutagenic call: active; positive
